Test results reported in US20100286186A1, “NOVEL DICARBOXYLIC ACID LINKED AMINO ACID AND PEPTIDE PRODRUGS OF OPIOIDS AND USES THEREOF” (Shire LLC, priority 2009, published 2010).

Columns and labels:
[1] = tested on: gut motility in the rat; assay: Charcoal propulsion test of GI motility in the rat; type: in vivo; conditions: oral
Method: Test treatments were administered to groups of up to 10 rats fasted overnight prior to the test.
Test treatments were administered orally 60 minutes prior to a 2.0 mL oral dose of a 10% suspension of charcoal in 5% gum arabic. Thirty minutes after dosing with charcoal, the rats were sacrificed and the entire gastro-intestinal tract quickly and carefully removed. The distance the charcoal meal had traveled from the pyloric sphincter toward the caecum was measured and expressed as a percentage of both the total gut length and the length of the small intestine.

[2] = Plasma pharmacokinetics of meptazinol dicarboxylate linked prodrugs after oral gavage to cynomolgus monkeys; type: in vivo, cynomolgus monkey; conditions: 1 mg meptazinol base equivalents/kg; for Monkey Cmax (plasma meptazinol) / Monkey Cmax (plasma prodrug levels, in brackets): cynomolgus monkey, oral gavage of prodrug; for Monkey Cmax (plasma meptazinol): meptazinol level; for Monkey Cmax (plasma prodrug levels, in brackets): prodrug level, BLQ = below 0.5 ng/mL; for improvement in systemic levels of meptazinol: monkey, oral gavage
[3] = Plasma pharmacokinetics of meptazinol dicarboxylate linked prodrugs after oral gavage to dogs; type: in vivo, dog; conditions: dog, 1 mg meptazinol base equivalents/kg; for systemic levels of meptazinol versus expected Cmax after the drug itself: oral gavage; for Dog Cmax (plasma meptazinol): meptazinol level
[4] = Stability of meptazinol dicarboxylate bridged amino acid prodrugs in simulated gastric and intestinal juice and pH 7.4 buffer; type: physicochemical; conditions: for 2 h stability in pH7.4 buffer (37° C.), Conversion to meptazinol: pH 7.4 buffer
Text: Initially the inherent chemical and biological stability of various dicarboxylate bridged amino acid prodrugs of meptazinol, was investigated under the conditions prevailing in the GI tract. Premature hydrolysis of the prodrug in the gut lumen prior to absorption would reduce the opportunity for transient protection of the drug during its passage though the liver and the desired reduction in first pass metabolism.
The remaining concentrations of the prodrug (and also drug released) were then assayed by HPLC. Additionally their chemical stability was evaluated in pH 7.4 buffer for 2 h 37° C.

[5] = oral gavage of prodrug, prodrug level, BLQ = below 0.5 ng/mL

Question: For `COc1ccc2c3c1O[C@H]1[C@@H](O)C=C[C@H]4[C@@H](C2)N(C)CC[C@@]341` [Codeine phosphate hemihydrate], which “% change from vehicle-treated animals, small intestine” value (“% change … small intestine” below) ([1]; 10 mg/kg) is on record?
Answer: −22.0%

Question: And the “% change from vehicle-treated animals, total gut length” value (from here on “% change … total gut length”) ([1]; 10 mg/kg)?
Answer: −21.7%

Question: What about the “% change … small intestine” value ([1]; 30 mg/kg) of the same compound?
Answer: −32.1%

Question: And the “% change … total gut length” value ([1]; 30 mg/kg)?
Answer: −32.0%

Question: What about the “% change … small intestine” value ([1]; 100 mg/kg) of the same compound?
Answer: −35.1%

Question: What about the “% change … total gut length” value ([1]; 100 mg/kg) of the same compound?
Answer: −34.9%

Question: For `COc1ccc2c3c1O[C@H]1[C@@H](O)CC[C@H]4[C@@H](C2)N(C)CC[C@@]341.O=C(O)C(O)C(O)C(=O)O` [Dihydrocodeine Hydrogen Tartrate, reference compound], which “% change … small intestine” value ([1]; 10 mg/kg) is on record?
Answer: −17.6%

Question: What about the “% change … total gut length” value ([1]; 10 mg/kg) of the same compound?
Answer: −16.3%

Question: And the “% change … small intestine” value ([1]; 30 mg/kg)?
Answer: −29.8%

Question: What about the “% change … total gut length” value ([1]; 30 mg/kg) of the same compound?
Answer: −30.5%

Question: And the “% change … small intestine” value ([1]; 100 mg/kg)?
Answer: −56.4%

Question: What about the “% change … total gut length” value ([1]; 100 mg/kg) of the same compound?
Answer: −57.0%

Question: What about the “% change … small intestine” value ([1]; 300 mg/kg) of the same compound?
Answer: −67.7%

Question: What about the “% change … total gut length” value ([1]; 300 mg/kg) of the same compound?
Answer: −68.0%

Question: For `CCC1(c2cccc(OC(=O)CC(C)(C)CC(=O)Nc3ccc(C(=O)O)cc3)c2)CCCCN(C)C1` (centres unmarked) [Meptazinol [3,3-dimethyl-glutaryl-PABA]ester], which “Monkey Cmax (plasma meptazinol)” value [2] is on record?
Answer: 1.3 ng/mL

Question: And the “Monkey Cmax (plasma prodrug levels, in brackets)” value [2]?
Answer: BLQ

Question: And the “improvement in systemic levels of meptazinol” value [2]?
Answer: not seen in the monkey

Question: What about the “systemic levels of meptazinol versus expected Cmax after the drug itself” value [3] of the same compound?
Answer: improved systemic levels of meptazinol

Question: And the “Dog Cmax (plasma meptazinol)” value ([3]; oral gavage of prodrug)?
Answer: 9.4 ng/mL

Question: And the “Dog Cmax (plasma prodrug levels, in brackets)” value [3, 5]?
Answer: 25 ng/mL

Question: And the “2 h stability in pH7.4 buffer (37° C.), Conversion to meptazinol” value [4]?
Answer: 93%

Question: What about the “1 h stability in simulated gastric fluid (37° C.), Conversion to meptazinol” value [4] of the same compound?
Answer: 1%

Question: What about the “2 h stability in simulated intestinal fluid (37° C.), Conversion to meptazinol” value [4] of the same compound?
Answer: 5%

Question: What does the source list for `CCC1(c2cccc(OC(=O)C=CC(=O)Nc3ccc(C(=O)O)cc3)c2)CCCCN(C)C1` (centres unmarked) [Meptazinol [fumaryl-PABA] ester]?
Answer: Monkey Cmax (plasma meptazinol) [2]: 1.4 ng/mL; Monkey Cmax (plasma prodrug levels, in brackets) [2]: BLQ; Dog Cmax (plasma meptazinol) ([3]; oral gavage of prodrug): 1.5 ng/mL; Dog Cmax (plasma prodrug levels, in brackets) [3, 5]: BLQ; 2 h stability in pH7.4 buffer (37° C.), Conversion to meptazinol [4]: 47%; 1 h stability in simulated gastric fluid (37° C.), Conversion to meptazinol [4]: 2%; 2 h stability in simulated intestinal fluid (37° C.), Conversion to meptazinol [4]: 6%

Question: What does the source list for `CCC1(c2cccc(OC(=O)CCCC(=O)N[C@H](C(=O)O)C(C)C)c2)CCCCN(C)C1` (stereo partly drawn) [Meptazinol [glutaryl-(S)-valine] ester]?
Answer: improvement in systemic levels of meptazinol [2]: not seen in the monkey; systemic levels of meptazinol versus expected Cmax after the drug itself [3]: improved systemic levels of meptazinol; Dog Cmax (plasma prodrug levels, in brackets) [3, 5]: 2.8 ng/mL

Question: With `CCC1(c2cccc(OC(=O)/C=C\C(=O)N[C@@H](Cc3ccccc3)C(=O)O)c2)CCCCN(C)C1` (stereo partly drawn) [Meptazinol [malearyl-(S)-phenylanine] ester] as the compound, how does the “Dog Cmax (plasma prodrug levels, in brackets)” value [3, 5] read?
Answer: 1.7 ng/mL

Question: What does the source list for `CCC1(c2cccc(OC(=O)/C=C\C(=O)N[C@H](C(=O)O)C(C)C)c2)CCCCN(C)C1` (stereo partly drawn) [Meptazinol [malearyl-(S)-valine] ester]?
Answer: Monkey Cmax (plasma prodrug levels, in brackets) [2]: BLQ; Cmax ([3]; beagle, plasma, oral gavage of prodrug, prodrug level, BLQ = below 0.5 ng/mL, read-out: Dog Cmax (plasma prodrug levels, in brackets)): 6 ng/mL

Question: Which “Dog Cmax (plasma prodrug levels, in brackets)” value [3, 5] does the source give for `CCC1(c2cccc(OC(=O)CC(=O)NC(C(=O)O)C(C)C)c2)CCCCN(C)C1` [Meptazinol [malonyl-(S)-valine] ester] here?
Answer: 44 ng/mL

Question: With `CCC1(c2cccc(OC(=O)CC(=O)Nc3ccc(C(=O)O)cc3)c2)CCCCN(C)C1` (centres unmarked) [Meptazinol [malonyl-PABA] ester] as the compound, how does the “Dog Cmax (plasma meptazinol)” value ([3]; oral gavage of prodrug) read?
Answer: 2.1 ng/mL
